In ChEMBL document CHEMBL1201862, “PubChem BioAssay data set” (2004):
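Values below derive from 48-hour exposures of cells grown in 96-well plates, with endpoints linearly interpolated between the two concentrations bracketing the appropriate inhibition level. Abbreviation: GI50, concentration required for 50% inhibition of growth.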 Active and inactive are the calls of the source. No stated cut-off is given here; in the data, active = GI50 up to about 1.1 µM and inactive = higher. Square brackets hold non-standard residues; d marks the D form. Peptide text beside a SMILES is read from it. 2Nal = N[CH](Cc1ccc2ccccc2c1)C(=O)O

Experiments:
Experiment in all cases: DTP human tumour cell line panel, 48 h
786-0 = test system: 786-0
A549 = test system: A549
ACHN = test system: ACHN
CAKI-1 = test system: CAKI-1
COLO 205 = test system: COLO 205
DLD-1 = test system: DLD-1
DMS-114 = test system: DMS-114
DMS-273 = test system: DMS-273
EKVX = test system: EKVX
HCC 2998 = test system: HCC 2998
HCT-116 = test system: HCT-116
HCT-15 = test system: HCT-15
HOP-18 = test system: HOP-18
HOP-62 = test system: HOP-62
HOP-92 = test system: HOP-92
HT-29 = test system: HT-29
IGROV-1 = test system: IGROV-1
KM-20L2 = test system: KM-20L2
KM12 = test system: KM12
LOX IMVI = test system: LOX IMVI
LXFL 529 = test system: LXFL 529
M14 = test system: M14
M19-MEL = test system: M19-MEL
Malme-3M = test system: Malme-3M
NCI-H226 = test system: NCI-H226
NCI-H23 = test system: NCI-H23
NCI-H460 = test system: NCI-H460
OVCAR-3 = test system: OVCAR-3
OVCAR-4 = test system: OVCAR-4
OVCAR-5 = test system: OVCAR-5
OVCAR-8 = test system: OVCAR-8
RPMI-8226 = test system: RPMI-8226
RXF 393 = test system: RXF 393
RXF 631 = test system: RXF 631
SF-268 = test system: SF-268
SF-295 = test system: SF-295
SF-539 = test system: SF-539
SK-MEL-28 = test system: SK-MEL-28
SK-MEL-2 = test system: SK-MEL-2
SK-OV-3 = test system: SK-OV-3
SN12C = test system: SN12C
SNB-19 = test system: SNB-19
SNB-75 = test system: SNB-75
SNB-78 = test system: SNB-78
SW-620 = test system: SW-620
TK-10 = test system: TK-10
U-251 = test system: U-251
UACC-257 = test system: UACC-257
UACC-62 = test system: UACC-62
UO-31 = test system: UO-31
XF498 = test system: XF498
A498 = test system: A498
CCRF-CEM = test system: CCRF-CEM
DU-145 = test system: DU-145
HL-60 = test system: HL-60
Hs-578T = test system: Hs-578T
MCF7 = test system: MCF7
MDA-MB-231 = test system: MDA-MB-231
MDA-MB-435 = test system: MDA-MB-435
MDA-N = test system: MDA-N
MOLT-4 = test system: MOLT-4
NCI-H522 = test system: NCI-H522
NCI/ADR-RES = test system: NCI/ADR-RES
PC-3 = test system: PC-3
SK-MEL-5 = test system: SK-MEL-5
SR = test system: SR
T47D = test system: T47D

Cc1ccccc1NC(=O)C(=O)CC(=O)c1ccc([N+](=O)[O-])cc1
GI50 (786-0): > 100 µM (inactive) | GI50 (A549): > 100 µM (inactive) | GI50 (ACHN): > 100 µM (inactive) | GI50 (CAKI-1): > 100 µM (inactive) | GI50 (COLO 205): > 100 µM (inactive) | GI50 (DLD-1): > 100 µM (inactive) | GI50 (DMS-114): > 100 µM (inactive) | GI50 (DMS-273): > 100 µM (inactive) | GI50 (EKVX): > 100 µM (inactive) | GI50 (HCC 2998): 23.8 µM (inactive) | GI50 (HCT-116): > 100 µM (inactive) | GI50 (HCT-15): > 100 µM | GI50 (HOP-18): > 100 µM (inactive) | GI50 (HOP-62): > 100 µM (inactive) | GI50 (HOP-92): > 100 µM (inactive) | GI50 (HT-29): > 100 µM (inactive) | GI50 (IGROV-1): > 100 µM (inactive) | GI50 (KM-20L2): > 100 µM (inactive) | GI50 (KM12): > 100 µM (inactive) | GI50 (LOX IMVI): > 100 µM (inactive) | GI50 (LXFL 529): > 100 µM (inactive) | GI50 (M14): > 100 µM (inactive) | GI50 (M19-MEL): > 100 µM (inactive) | GI50 (Malme-3M): > 100 µM (inactive) | GI50 (NCI-H226): > 100 µM (inactive) | GI50 (NCI-H23): > 100 µM (inactive) | GI50 (NCI-H460): > 100 µM (inactive) | GI50 (OVCAR-3): > 100 µM (inactive) | GI50 (OVCAR-4): > 100 µM (inactive) | GI50 (OVCAR-5): > 100 µM (inactive) | GI50 (OVCAR-8): > 100 µM (inactive) | GI50 (RPMI-8226): > 100 µM (inactive) | GI50 (RXF 393): > 100 µM (inactive) | GI50 (RXF 631): > 100 µM (inactive) | GI50 (SF-268): > 100 µM (inactive) | GI50 (SF-295): > 100 µM (inactive) | GI50 (SF-539): > 100 µM (inactive) | GI50 (SK-MEL-28): > 100 µM (inactive) | GI50 (SK-MEL-2): > 100 µM (inactive) | GI50 (SK-OV-3): > 100 µM (inactive) | GI50 (SN12C): > 100 µM (inactive) | GI50 (SNB-19): > 100 µM (inactive) | GI50 (SNB-75): 39.6 µM (inactive) | GI50 (SNB-78): > 100 µM (inactive) | GI50 (SW-620): > 100 µM (inactive) | GI50 (TK-10): > 100 µM (inactive) | GI50 (U-251): > 100 µM (inactive) | GI50 (UACC-257): > 100 µM (inactive) | GI50 (UACC-62): > 100 µM (inactive) | GI50 (UO-31): > 100 µM (inactive) | GI50 (XF498): > 100 µM (inactive)

CC(C)C(NC(=O)C(CCCCN)NC(=O)C(Cc1c[nH]c2ccccc12)NC(=O)C(Cc1ccc(O)cc1)NC(=O)C(CS)NC(=O)C(N)Cc1ccc2ccccc2c1)C(=O)NC(CS)C(=O)NC(C(N)=O)C(C)O (configuration not stated) (H-[2Nal]CYWKVCT-NH2; configuration not given here)
GI50 (786-0): > 12.5 µM (inactive) | GI50 (A498): > 12.5 µM (inactive) | GI50 (A549): > 12.5 µM (inactive) | GI50 (ACHN): > 12.5 µM (inactive) | GI50 (CAKI-1): > 12.5 µM (inactive) | GI50 (CCRF-CEM): > 12.5 µM (inactive) | GI50 (COLO 205): > 12.5 µM (inactive) | GI50 (DLD-1): > 100 µM (inactive) | GI50 (DMS-114): > 100 µM (inactive) | GI50 (DMS-273): > 100 µM (inactive) | GI50 (DU-145): > 12.5 µM (inactive) | GI50 (EKVX): > 12.5 µM (inactive) | GI50 (HCC 2998): > 12.5 µM (inactive) | GI50 (HCT-116): > 12.5 µM (inactive) | GI50 (HCT-15): > 12.5 µM | GI50 (HL-60): > 12.5 µM (inactive) | GI50 (HOP-18): > 100 µM (inactive) | GI50 (HOP-62): > 12.5 µM (inactive) | GI50 (HOP-92): < 0.01 µM (active) | GI50 (HT-29): > 12.5 µM (inactive) | GI50 (Hs-578T): > 12.5 µM (inactive) | GI50 (IGROV-1): > 12.5 µM (inactive) | GI50 (KM-20L2): > 100 µM (inactive) | GI50 (KM12): > 12.5 µM (inactive) | GI50 (LOX IMVI): > 12.5 µM (inactive) | GI50 (LXFL 529): > 100 µM (inactive) | GI50 (M14): > 12.5 µM (inactive) | GI50 (M19-MEL): > 100 µM (inactive) | GI50 (MCF7): > 12.5 µM (inactive) | GI50 (MDA-MB-231): > 12.5 µM (inactive) | GI50 (MDA-MB-435): > 12.5 µM (inactive) | GI50 (MDA-N): > 12.5 µM (inactive) | GI50 (MOLT-4): > 12.5 µM (inactive) | GI50 (Malme-3M): > 12.5 µM (inactive) | GI50 (NCI-H226): > 12.5 µM (inactive) | GI50 (NCI-H23): > 12.5 µM (inactive) | GI50 (NCI-H460): > 12.5 µM (inactive) | GI50 (NCI-H522): > 12.5 µM (inactive) | GI50 (NCI/ADR-RES): > 12.5 µM (inactive) | GI50 (OVCAR-3): > 12.5 µM (inactive) | GI50 (OVCAR-4): > 12.5 µM (inactive) | GI50 (OVCAR-5): > 12.5 µM (inactive) | GI50 (OVCAR-8): > 12.5 µM (inactive) | GI50 (PC-3): > 12.5 µM (inactive) | GI50 (RPMI-8226): > 12.5 µM (inactive) | GI50 (RXF 393): > 12.5 µM (inactive) | GI50 (RXF 631): > 100 µM (inactive) | GI50 (SF-268): > 12.5 µM (inactive) | GI50 (SF-295): > 12.5 µM (inactive) | GI50 (SF-539): > 12.5 µM (inactive) | GI50 (SK-MEL-28): > 100 µM (inactive) | GI50 (SK-MEL-2): > 12.5 µM (inactive) | GI50 (SK-MEL-5): > 12.5 µM (inactive) | GI50 (SK-OV-3): > 12.5 µM (inactive) | GI50 (SN12C): > 12.5 µM (inactive) | GI50 (SNB-19): > 100 µM (inactive) | GI50 (SNB-75): > 100 µM (inactive) | GI50 (SNB-78): 8.15 µM (inactive) | GI50 (SR): > 12.5 µM (inactive) | GI50 (SW-620): > 12.5 µM (inactive) | GI50 (T47D): > 12.5 µM (inactive) | GI50 (U-251): > 12.5 µM (inactive) | GI50 (UACC-257): > 12.5 µM (inactive) | GI50 (UACC-62): > 12.5 µM (inactive) | GI50 (UO-31): > 12.5 µM (inactive) | GI50 (XF498): > 100 µM (inactive)
